Earlier results, collected in patent US20070191365A1, “3,4,6-Substituted pyridazines for treating neuropathic pain and associated syndromes” (priority 2006, published 2007).

Test system: animal model of Alzheimer's disease
Conditions: Ranaivo et al., J Neurosci. (2006) 26:662-670

c1ccc(-c2cc(-c3ccccc3)c(N3CCN(c4ncccn4)CC3)nn2)cc1 [4,6-diphenyl-3-(4-(pyrimidin-2-yl)piperazin-1-yl)pyridazine]
efficacy in an animal model of Alzheimer's disease: exhibits efficacy
